Measurements taken from patent US20150126465A1, “PROCESS FOR PRODUCING DERIVATIVES OF PYROSTEGIA VENUSTA, DERIVATIVES OF PYROSTEGIA VENUSTA, PHARMACEUTICAL COMPOSITIONS AND ITS USES” (priority 2011, published 2015).
≈ marks a conversion by molar mass, not a printed value. Where two headings read alike, the source gives them in different places. Each block holds one molecule with its values, some of them ahead of it.

Experiments:
[1] = tested on: Candida tropicalis USP B3; assay: MIC by microdilution (CLSI M27-A2); assay type: cell-based; set-up: key: —: There was no growth inhibition
[2] = tested on: Candida tropicalis USP 1658; assay: MIC by microdilution (CLSI M27-A2); assay type: cell-based; set-up: key: —: There was no growth inhibition
[3] = tested on: Candida parapsilosis USP 1933; assay: MIC/CFM by microdilution (CLSI M27-A2); assay type: cell-based; set-up: key to MIC: —: There was no growth inhibition
[4] = tested on: Candida albicans USP 1565; assay: MIC by microdilution (CLSI M27-A2); assay type: cell-based; set-up: key: —: There was no growth inhibition
[5] = tested on: Candida guilhermondii USP; assay: MIC/CFM by microdilution (CLSI M27-A2); assay type: cell-based; set-up: key to MIC: —: There was no growth inhibition
Candida krusei ATCC 6258 = assay: MIC/CFM by microdilution (CLSI M27-A2); assay type: cell-based; set-up: key to MIC: —: There was no growth inhibition
[6] = tested on: Trichophyton rubrum ATCC MYA-3108; assay: MIC by microdilution, filamentous fungi (CLSI M38-A); assay type: cell-based; details: Table 11, Trichophyton rubrum ATCC MYA-3108
[7] = tested on: Microsporum canis ATCC 32903; assay: as above; assay type: cell-based; details: Table 13, Microsporum canis ATCC 32903, 7 days, 28° C.
Method: (§1) Pure substances termed P1 and P2 previously dissolved in 20% DMSO, were diluted in RPMI medium, with final concentrations of 96 μg.mL-1. […] Cultures of filamentous fungi described below were inoculated in Agar-Batata Dextrose medium and inoculated for 7 days, at 28° C. Colonies of cultures inoculated for 7 days in an oven at 28° C. were shrouded with 0.85% saline solution, scraped and then transferred to conical tubes. After resting for 5 minutes, the supernatant was transferred to new conical tubes for subsequent quantification in spectrophotometer, at 530 nm, with the transmittance adjustment of 80-82% for A. niger and 70% for other microorganisms. After adjustment, there was a 1:50 dilution in RPM. The determination of Minimum Inhibitory Concentration was performed after 7 days, at 28° C. After the incubation period, aliquots of 96-well plates were transferred to Petri plates with Potato Dextrose Agar, to determine the Minimum Fungicidal Concentration. Plates were inoculated for more 7 days, at 28° C.

[8] = tested on: Phomopsis longicolla (soy isolate); assay: as above; assay type: cell-based; details: Table 13, Phomopsis longicolla- soy, 7 days, 28° C.
Method: as §1

[9] = tested on: Trichophyton menthagrophyton ATCC 9533; assay: as above; assay type: cell-based; details: Table 13, Trichophyton menthagrophyton ATCC 9533, 7 days, 28° C.
Method: as §1

Candida krusei USP 2223 = assay: MIC by microdilution (CLSI M27-A2); assay type: cell-based; set-up: key: —: There was no growth inhibition
[10] = tested on: Candida albicans ATCC 10231; assay: MIC/CFM by microdilution (CLSI M27-A2); assay type: cell-based
[11] = tested on: Candida parapsilosis ATCC 22019; assay: MIC/CFM by microdilution (CLSI M27-A2); assay type: cell-based
[12] = tested on: Candida albicans OF-M3-20; assay: MIC/CFM by microdilution (CLSI M27-A2); assay type: cell-based
Method: (§2) Pure substances termed P1 and P2 previously dissolved in 20% DMSO, were diluted in RPMI medium, with final concentrations of 96 μg.mL-1. […] The same was also tested individually, diluted in RPMI medium, with initial concentration of 1 μL.mL-1. […] Cultures of Candida sp. were prepared and standardized in […] saline solution at 0.85%. For inoculums standardization, a spectrophotometer equipment was used, with wavelength at 530 nm and absorbance adjustment between 0.130 and 0.150, having as white the saline solution free of inoculum or any other contaminant, corresponding to concentrations of 10^6 CFU/mL. In this condition the inoculum “mother” was diluted 50 times and from this inoculum “child” the dilution was performed 20 times to obtain a standard inoculum in 10^3 cells per well. […] To aid in the growth view, were added to the wells dye 50 μL 2,3,5-triphenyltetrazolium chloride (TTC) at 5 mg.mL “1, being performed the readings after 4 hours of incubation. Prior to the addition of dye, aliquots of 96-well plate were transferred to Petri with Agar-Sabouraud Dextrose to determine the Minimum Fungicidal Concentration. Plates were incubated for 24 hours at 35° C.

[13] = tested on: Candida albicans OF-M7-19; assay: MIC/CFM by microdilution (CLSI M27-A2); assay type: cell-based
Method: as §2

Candida albicans USP 1 = assay: MIC/CFM by microdilution (CLSI M27-A2); assay type: cell-based
Method: as §2

C. Albicans USP 2 = assay: MIC/CFM against Candida sp. strains; assay type: cell-based; details: Table 14, C. Albicans USP 2
Candida glabrata ATCC = assay: MIC/CFM against Candida sp. strains; assay type: cell-based; details: Nakaseomyces glabratus; Table 14, Candida glabrata ATCC
DPPH antioxidant test = assay type: biochemical; details: 517 nm
Method: The antioxidant activity evaluation was performed through DPPH test.
Extract flower ethanol samples and PV6.7 were dissolved in methanol in concentrations of 1 mg.mL-1, 500 μg, mL-1, 250 μg, mL-1, 125 μg, mL-1, 62.5 μg, mL-1 and 31.25 μg, mL-1. As control Metabissulfito and Rutin were used in the same conditions of the samples.
Around 0.002 g of DPPH was dissolved in 50 mL of methanol. Then, it was verified the solution absorbance in spectrophotometer, in 517 nm, which must be below 1.
In a plastic Eppendorf, it was added 950 μL of methanolic solution of DPPH and 50 μL of the sample. As white, it was used in the place of the sample 50 μL of methanol. The samples were then incubated for 15 minutes at 30° C. After this period, the solutions were transferred to cuvettes and performed the readings at 517 nm, zeroing the spectrophotometer with methanol.
% inhibition=B−A/B×100, being A=sample, and B=White

[14] = Table 11, C. Tropicalis USP 1658
[15] = Table 11, C. parapsilosis USP 1933

SMILES: C[C@@H]1[C@H](O)[C@@H](C)/C=C/C=C/C=C/C=C/C=C/C=C/C=C/[C@H](O[C@@H]2O[C@H](C)[C@@H](O)[C@H](N)[C@@H]2O)C[C@@H]2O[C@](O)(C[C@@H](O)C[C@@H](O)[C@H](O)CC[C@@H](O)C[C@@H](O)CC(=O)O[C@H]1C)C[C@H](O)[C@H]2C(=O)O [AnfotericinaB, Anfotericina B]
MIC ([1]; Table 11, C. Tropicalis USP B3): 2 µg/mL (≈ 2.16 µM)
MIC [2, 14]: 1 µg/mL (≈ 1.08 µM)
MIC [3, 15]: 2 µg/mL (≈ 2.16 µM)
MIC ([4]; Table 11, C. Albicans USP 1565): 1 µg/mL (≈ 1.08 µM)
MIC ([5]; Table 11, C. guilhermondii USP): 2 µg/mL (≈ 2.16 µM)
MIC (Candida krusei ATCC 6258; Table 11, C. krusei ATCC 6258): 1 µg/mL (≈ 1.08 µM)
MIC [6]: 1 µg/mL (≈ 1.08 µM)
MIC [7]: 1.56 µg/mL (≈ 1.69 µM)
MIC [8]: 0.5 µg/mL (≈ 0.541 µM)
MIC [9]: 4 µg/mL (≈ 4.33 µM)

SMILES: O=S([O-])S(=O)(=O)[O-].[Na+].[Na+] [Metabissulfito]
Antioxidant Activity Percentage (DPPH antioxidant test; sample 31.25 μg · mL^−1, 15 minutes at 30° C.): 0%
Antioxidant Activity Percentage (DPPH antioxidant test; sample 62.5 μg · mL^−1, 15 minutes at 30° C.): 0%
Antioxidant Activity Percentage (DPPH antioxidant test; sample 125 μg · mL^−1, 15 minutes at 30° C.): 1.33%
Antioxidant Activity Percentage (DPPH antioxidant test; sample 250 μg · mL^−1, 15 minutes at 30° C.): 4.62%
Antioxidant Activity Percentage (DPPH antioxidant test; sample 500 μg · mL^−1, 15 minutes at 30° C.): 8.63%
Antioxidant Activity Percentage (DPPH antioxidant test; sample 1 mg · mL^−1, 15 minutes at 30° C.): 15.3%

SMILES: CC(=O)N1CCN(c2ccc(OCC3COC(Cn4ccnc4)(c4ccc(Cl)cc4Cl)O3)cc2)CC1 (stereo not drawn) [Cetoconazol]
MIC ([10]; Table 12, C. albicans ATCC 10231, 48 h, 35° C.): 32 µg/mL (≈ 60.2 µM)
MIC ([2]; Table 12, C. tropicalis USP 1658, 48 h, 35° C.): *<4 μg · mL^−1
MIC ([11]; Table 12, C. parapsilosis ATCC 22019, 48 h, 35° C.): <0.125 µg/mL
MIC ([3]; Table 12, C. parapsilosis USP 1933, 48 h, 35° C.): <0.125 µg/mL
MIC ([4]; Table 12, C. albicans USP 1565, 48 h, 35° C.): <0.125 µg/mL
MIC ([5]; Table 12, C. guilhermondii USP, 48 h, 35° C.): 0.125 µg/mL (≈ 0.235 µM)
MIC (Candida krusei ATCC 6258; Table 12, C. krusei ATCC 6258, 48 h, 35° C.): <0.125 µg/mL
MIC (Candida krusei USP 2223; Table 12, C. krusei USP 2223, 48 h, 35° C.): 2 µg/mL (≈ 3.76 µM)
MIC ([12]; Table 12, C. albicans OF M3-20, 48 h, 35° C.): <0.125 µg/mL
MIC ([13]; Table 12, C. albicans OF M7-19, 48 h, 35° C.): <0.125 µg/mL
MIC (Candida albicans USP 1; Table 12, C. albicans USP 1, 48 h, 35° C.): <0.125 µg/mL
MIC [7]: 4 µg/mL (≈ 7.53 µM)
MIC [8]: <0.125 µg/mL
MIC [9]: 2 µg/mL (≈ 3.76 µM)

The next lines start with results.

MIC ([1]; Candida tropicalis, USPB3, Table 11, C. Tropicalis USP B3, read-out: MIC): 1 µg/mL (≈ 3.27 µM)
MIC ([2]; Candida tropicalis, USP1658, Table 11, C. Tropicalis USP 1658, read-out: MIC): < 1 µg/mL
MIC ([3]; Lodderomyces parapsilosis, USP1933, Table 11, C. parapsilosis USP 1933, read-out: MIC): < 1 µg/mL
MIC ([4]; Candida albicans, USP1565, Table 11, C. Albicans USP 1565, read-out: MIC): < 1 µg/mL
MIC ([5]; Candida, Table 11, C. guilhermondii USP, read-out: MIC): < 1 µg/mL
MIC (Candida krusei ATCC 6258; Pichia kudriavzevii, ATCC6258, Table 11, C. krusei ATCC 6258, read-out: MIC): 8 µg/mL (≈ 26.1 µM)
MIC (Candida krusei USP 2223; Pichia kudriavzevii, ATCC2223, Table 11, C. krusei ATCC 2223, read-out: MIC): 64 µg/mL (≈ 209 µM)
MIC ([6]; read-out: MIC): 16 µg/mL (≈ 52.2 µM)
SMILES: OC(Cn1cncn1)(Cn1cncn1)c1ccc(F)cc1F [Fluconazol]

MIC ([1]; Table 11, C. Tropicalis USP B3): —
MIC [2, 14]: —
MIC [3, 15]: —
MIC ([4]; Table 11, C. Albicans USP 1565): —
MIC ([5]; Table 11, C. guilhermondii USP): —
MIC (Candida krusei ATCC 6258; Table 11, C. krusei ATCC 6258): —
MIC (Candida krusei USP 2223; Table 11, C. krusei ATCC 2223): —
MIC ([6]; read-out: MIC): 0.25 µg/mL (≈ 0.858 µM)
SMILES: CN(C/C=C/C#CC(C)(C)C)Cc1cccc2ccccc12 [Terbinafina ®, Terbinafina]

MIC ([10]; Candida albicans, ATCC10231, Table 14, C. Albicans ATCC 10231, read-out: MIC): 3 µg/mL (≈ 4.8 µM)
MIC ([1]; Candida tropicalis, USPB3, Table 14, C. Tropicalis UPS B3, read-out: MIC): 6 µg/mL (≈ 9.61 µM)
MIC ([11]; Lodderomyces parapsilosis, ATCC22019, Table 14, C. parapsilosis ATCC 22019, read-out: MIC): 1.5 µg/mL (≈ 2.4 µM)
MIC ([3]; Lodderomyces parapsilosis, USP1933, Table 14, C. parapsilosis USP 1933 ATCC, read-out: MIC): 3 µg/mL (≈ 4.8 µM)
MIC ([5]; Table 14, Candida guilhermondi USPATCC, read-out: MIC): 1.5 µg/mL (≈ 2.4 µM)
MIC (Candida krusei ATCC 6258; Pichia kudriavzevii, ATCC6258, Table 14, C. krusei ATCC, read-out: MIC): 1.5 µg/mL (≈ 2.4 µM)
MIC (Candida krusei USP 2223; Pichia kudriavzevii, USP2223, Table 14, C. krusei USP 2223, read-out: MIC): 1.5 µg/mL (≈ 2.4 µM)
MIC ([12]; Candida albicans, OFM320, Table 14, C. Albicans OF M3-20, read-out: MIC): 3 µg/mL (≈ 4.8 µM)
MIC ([13]; Candida albicans, OFM719, Table 14, C. Albicans OF M7-19, read-out: MIC): 0.75 µg/mL (≈ 1.2 µM)
MIC (Candida albicans USP 1; Candida albicans, USP1, Table 14, C. Albicans USP 1, read-out: MIC): 1.5 µg/mL (≈ 2.4 µM)
MIC (C. Albicans USP 2): 3 µg/mL (≈ 4.8 µM)
MIC (Candida glabrata ATCC): 0.375 µg/mL (≈ 0.6 µM)
SMILES: CC1OC(OC2C(O)C(COC(=O)/C=C/c3ccc(O)c(O)c3)OC(OCCc3ccc(O)c(O)c3)C2O)C(O)C(O)C1O (stereo not drawn) [Fraction P3, iso-verbascoside]
MFC ([5]; Table 14, Candida guilhermondi USPATCC, read-out: CFM (Minimum Fungicidal Concentration)): 6 µg/mL (≈ 9.61 µM)
MFC (Candida krusei ATCC 6258; Pichia kudriavzevii, ATCC6258, Table 14, C. krusei ATCC, read-out: CFM (Minimum Fungicidal Concentration)): 12 µg/mL (≈ 19.2 µM)
